Reference: BindingDB's records for doi:10.1016/j.bmc.2019.115177 (National Centre For Scientific Research "Demokritos, 2019)

Tests used:
[1] = molecular target: Insulin-regulated aminopeptidase (Homo sapiens); assay: Competitive inhibition of human recombinant IRAP expressed in baculovirus infected sf9 cells using L-AMC as substrate incubated for 5 to 10 mins by Michaelis-Menten analysis
[2] = molecular target: Insulin-regulated aminopeptidase (Homo sapiens); assay: Inhibition of human recombinant IRAP expressed in baculovirus infected Sf9 cells using omniMMP fluorogenic substrate incubated for 5 to 10 mins by fluorescence spectrophotometry analysis

| SMILES | Ki [1] [µM] | IC50 [2] [µM] |
| --- | --- | --- |
| CCCC[C@H](N)C(=O)Nc1cccc(C(=O)N[C@@H](Cc2c[nH]c3ccccc23)C(=O)OCc2ccccc2)c1 | 3.2 | 6.2 |
| COc1cccn(CC(=O)NCCc2ccc(-c3ccccc3)cc2)c1=S | 8.7 | 16.7 |
| CC(C)[C@H](NC(=O)Cn1cccc(O)c1=O)C(=O)OCc1ccccc1 | 17.6 | 33.6 |
| CCCC[C@H](N)C(=O)Nc1cc(C(=O)N[C@@H](Cc2c[nH]c3ccccc23)C(=O)OCc2ccccc2)ccn1 | 4.6 | 8.8 |
| O=C(Cn1cccc(O)c1=O)N[C@@H](Cc1c[nH]c2ccccc12)C(=O)OCc1ccccc1 | 5.7 | 10.9 |
| O=C(Cn1cccc(O)c1=O)NCCc1ccc(-c2ccccc2)cc1 | 13 | 24.8 |
| N[C@@H](CCc1ccccc1)C(=O)NNc1ccc(C(=O)N[C@@H](Cc2c[nH]c3ccccc23)C(=O)OCc2ccccc2)cc1 |  | 2.5 |
| CCCC[C@H](N)C(=O)Nc1ccc(C(=O)N[C@@H](Cc2c[nH]c3ccccc23)C(=O)OCc2ccccc2)cc1 |  | > 10 |
| CCCC[C@H](N)C(=O)NNc1ccc(C(=O)N[C@@H](Cc2c[nH]c3ccccc23)C(=O)OCc2ccccc2)cc1 | 1.3 | 2.5 |
| CCCC[C@H](N)C(=O)NNc1cccc(C(=O)N[C@@H](Cc2c[nH]c3ccccc23)C(=O)OCc2ccccc2)c1 | 3.8 | 7.2 |
